{"source": "paper PMC8624189", "about": "“Phenolic Profiles and Biological Activities of Extracts from Edible Wild Fruits Ehretia tinifolia and Sideroxylon lanuginosum” (Foods, 2021)", "key": {"MCF-7 cells": {"test_system": "MCF-7 cells", "conditions": "read-out: EC50 in inhibiting MCF-7 cell growth; cited from earlier work"}, "human erythrocytes": {"test_system": "human erythrocytes", "assay": "Protective effect on human erythrocytes (AAPH-induced hemolysis)", "assay_type": "cell-based", "conditions": "Erythrocyte, 37 °C, 3 h, read-out: Hemolytic Inhibition IC50", "experimental": "Hemolysis was induced by peroxyl radicals generated by AAPH (2-2'-Azobis (2-amidinopropane dihydrochloride) according to the methodology of Silva-Beltrán et al.. Then, 5 mL of blood was obtained from healthy human volunteers by venipuncture and collected into tubes containing EDTA as an anticoagulant. Erythrocytes were separated from plasma by centrifugation at 1500 rpm for 10 min at room temperature and washed three times with five volumes of phosphate-buffered saline (PBS) (37 mM of NaCl, 2.7 mM of KCI, 8 mM of Na2HPO4, and 2 mM of KH2PO4 w/v) at pH 7.4. Later, erythrocytes were suspended in four volumes of PBS solution to obtain a density of 8 × 10^9 cells/mL. The addition of AAPH to the suspension of washed erythrocytes induces oxidation of membrane lipids and proteins, resulting in hemolysis. The erythrocyte suspension (250 μL) was mixed with 250 μL of fruit extracts dissolved in PBS at concentrations of 500, 750, 1000, 2000 μg/mL and 250 μL of 300 mM AAPH in PBS. The reaction mixture was shaken gently while being incubated at 37 °C for 3 h. […] The supernatant's absorbance was measured in a microplate reader (Agilent BioTek Epoch, Santa Clara, CA, United States) at 540 nm. Percent inhibition was calculated by the following equation:% Inhibition = [[…] × 100] where AAAPH is the absorbance of AAPH at 540 nm and As is the absorbance of the extracts at 540 nm. […]"}, "erythrocytes": {"test_system": "erythrocytes", "conditions": "cited from earlier work"}, "HeLa cells": {"test_system": "HeLa cells", "assay": "Antiproliferative activity, Alamar Blue, HeLa", "assay_type": "cell-based", "conditions": "Homo sapiens, 24 h exposure, read-out: Half Maximal Inhibitory Concentration HeLa", "experimental": "(§1) The antiproliferative effects of extracts of E. tinifolia and S. lanuginosum were assessed using the method described previously by Viveros-Valdez, et al.. HeLa (ATCC® CCL-2), MCF-7 (ATCC® HTB-22) and HT-29 (ATCC® HTB-38) cancer cell lines were used. The cells were seeded in 25 cm^2 tissue culture flasks in Dulbecco’s modified eagle medium (DMEM) mixed with Ham’s nutrients (Ham’s F-12) and supplemented with 10% fetal bovine serum (FBS), adjusting the pH to 7.2. A mixture of antibiotics composed of penicillin and streptomycin (10,000 IU/mL: 10,000 µg/mL; 1 mL of mixture/1 L of medium) was added. Cells were maintained at 37 °C in an incubator under a 5% CO2/95% air atmosphere at constant humidity. Cells were harvested by trypsinization, counted with a hemocytometer, and their viability was confirmed by Trypan Blue (0.4%). The different cancer cell lines were seeded with 5000 cells per well in a 96 well plate."}, "HT-29 cells": {"test_system": "HT-29 cells", "assay": "Antiproliferative activity, Alamar Blue, HT-29", "assay_type": "cell-based", "conditions": "Homo sapiens, 24 h exposure, read-out: Half Maximal Inhibitory Concentration HT-29", "experimental": "as §1"}}}
{"smiles": "O=c1c(O[C@@H]2O[C@H](CO)[C@@H](O)[C@H](O)[C@H]2O)c(-c2ccc(O)c(O)c2)oc2cc(O)cc(O)c12", "note": "[QG, quercetin glucoside]", "values": [{"measurement": "EC50", "setting": "MCF-7 cells", "result": 46.4, "unit": "µM"}]}
{"smiles": "O=C1O[C@H]([C@@H](O)CO)C(O)=C1O", "note": "[ascorbic acid]", "values": [{"measurement": "IC50", "setting": "human erythrocytes", "result": "289 ± 20", "unit": "µg/mL"}]}
{"smiles": "Oc1cc(O)c2c(c1)O[C@H](c1ccc(O)c(O)c1)[C@H](O)C2", "note": "[epicatechin]", "values": [{"measurement": "hemolysis inhibition IC50", "setting": "erythrocytes", "result": 42.3, "unit": "µg/mL"}]}
{"smiles": "CC(=O)O[C@H]1C(=O)[C@@]2(C)[C@H]([C@H](OC(=O)c3ccccc3)[C@]3(O)C[C@H](OC(=O)[C@H](O)[C@@H](NC(=O)c4ccccc4)c4ccccc4)C(C)=C1C3(C)C)[C@]1(OC(C)=O)CO[C@@H]1C[C@@H]2O", "note": "[taxol, Taxol]", "values": [{"measurement": "IC50", "setting": "HeLa cells", "result": "11 ± 2", "unit": "µg/mL"}, {"measurement": "IC50", "setting": "HT-29 cells", "result": "15 ± 1", "unit": "µg/mL"}]}
